From patent US20240009211A1, “PHARMACEUTICAL COMPOSITION FOR TREATMENT OF LUNG CANCER COMPRISING CANNABIDIOL AND ANTICANCER AGENT AS ACTIVE INGREDIENTS, AND USE THEREOF” (NEOCANNBIO CO., LTD., priority 2022, published 2024)

Assays:
[1] = test system: A549 cells; experiment: Cancer cell toxicity of CBD, WST-8 cell survival; format: cell-based; conditions: Homo sapiens, A549, 48 h
Protocol: Specifically, A549 cells, a lung cancer cell line, were seeded in 96-well plates at a concentration of 1×10^4 cells/well, cultured in a 37° C., 10% CO2 incubator for 24 hours, then treated with CBD in a concentration-dependent manner and cultured under the same conditions for 48 hours. After completion of culture, 1/10 of WST-8 solution (Quanti-Max™, BIOMAX, Korea) was added to the medium, and after additional culture at 37° C. for 1 hour, the cell survival rate was determined by measuring absorbance at 450 nm, and expressed as a percentage of the control without any treatment. The experiment was conducted independently and repeated three times.

[2] = test system: A549 cells; experiment: Anti-cancer agents with or without CBD, WST-8 cell survival; format: cell-based; conditions: A549, 48 h
Protocol: After completion of culture, 1/10 of WST-8 solution (Quanti-Max™, BIOMAX, Korea) was added to the medium, and after additional culture at 37° C. for 1 hour, the cell survival rate was determined by measuring absorbance at 450 nm, and expressed as a percentage of the control without any treatment. The experiment was conducted independently and repeated three times.

[3] = test system: A549 cells; experiment: Western blotting of apoptosis- and autophagy-related proteins after combined treatment; format: cell-based; conditions: A549, 24 h, etoposide combined with CBD (15 μM)
Protocol: After completion of culture, the cells were harvested and the proteins were quantified using the bradford assay (Bio-Rad, japan), and the proteins (30 ug/well) were separated by electrophoresis on NuPAGE 4-12% Bis-Tris gels (Invitrogen) and transferred to polyvinylidene difluoride (PVDF). Next, the PVDF membrane was reacted with a primary antibody (Monoclonal antibody, Cell signaling technology, USA) specific for PARP[Poly (ADP-ribose) polymerase], cleaved caspase9, cleaved caspase8, LC3B or GAPDH for 1 hour at room temperature, followed by reacting with an anti-rabbit secondary antibody (Cell signaling technology) for 1 hour. The antibodies bound to PVDF were visualized using ECL Advance Western Blotting Detection Reagents (GE Healthcare, UK) and LAS 4000 imaging system (Fujifilm, Japan).

[4] = test system: A549 cells; experiment: Apoptosis by Fluorescence Activated Cell Sorting (FACS); format: cell-based; conditions: A549, combined treatment of etoposide and CBD compared to individual treatment
Source text: In addition, the apoptosis results of the combination treatment were re-validated using a Fluorescence Activated Cell Sorting (FACS) system.

[5] = test system: A549 cells; experiment: cells; conditions: Homo sapiens, A549, 48 h
[6] = Homo sapiens, read-out: IC50 (μM), with CBD (15 μM)
[7] = Homo sapiens, read-out: IC50 (μM), without CBD
[8] = etoposide concentration-dependent

Compound	IC50 [2, 6]	IC50 [2, 7]	other results
C=C(C)[C@@H]1CCC(C)=C[C@H]1c1c(O)cc(CCCCC)cc1O [CBD, 2-[(1R,6R)-3-methyl-6-prop-1-en-2-ylcyclohex-2-en-1-yl]-5-pentylbenzene-1,3-diol]			IC50 [1]: 18.6 µM
COc1cc2nccc(Oc3ccc(NC(=O)C4(C(=O)Nc5ccc(F)cc5)CC4)cc3)c2cc1OC [Cabozantinib (XL184), Cabozantinib]	4.14 µM	8.29 µM	
N.N.O=C([O-])C1(C(=O)[O-])CCC1.[Pt+2] [Carboplatin]			IC50 ([2]; read-out: IC50 (μM), 48 h, with CBD, with CBD (15 μM)): > 100 µM
COc1cc([C@@H]2c3cc4c(cc3[C@@H](O[C@@H]3O[C@@H]5CO[C@@H](C)O[C@H]5[C@H](O)[C@H]3O)[C@H]3COC(=O)[C@H]23)OCO4)cc(OC)c1O [Etoposide (VP-16), etoposide]	51.4 µM		expression of Bcl-2 protein [3]: decreased; expression of autophagy-related protein LC3-II [3]: increased; expression of Bax protein [3, 8]: increased; expression of cleaved PARP protein [3, 8]: increased; expression of cleaved caspase8 protein [3, 8]: increased; expression of cleaved caspase9 protein [3, 8]: increased; number of early apoptotic cells [4]: significantly increased; IC50 ([5]; read-out: cytotoxicity (IC50) of etoposide alone): 106 µM; IC50 ([5]; read-out: cytotoxicity (IC50) of etoposide upon combined treatment with CBD): 51.4 µM
COc1cc2nccc(Oc3ccc(NC(=O)NC4CC4)c(Cl)c3)c2cc1C(N)=O [Lenvatinib]	16.9 µM	19.9 µM	
CNC(=O)c1cc(Oc2ccc(NC(=O)Nc3ccc(Cl)c(C(F)(F)F)c3)c(F)c2)ccn1 [Regorafenib]	4.11 µM	5.27 µM	
CNC(=O)c1cc(Oc2ccc(NC(=O)Nc3ccc(Cl)c(C(F)(F)F)c3)cc2)ccn1 [Sorafenib]	4.26 µM	8.97 µM	
CCC1=C[C@@H]2CN(C1)Cc1c([nH]c3ccccc13)[C@@](C(=O)OC)(c1cc3c(cc1OC)N(C)[C@H]1[C@@](O)(C(=O)OC)[C@H](OC(C)=O)[C@]4(CC)C=CCN5CC[C@]31[C@@H]54)C2 [Vinorelbine]	6.38 µM	12.4 µM	
